In ChEMBL document CHEMBL1138821, “Amino porphyrins as photoinhibitors of Gram-positive and -negative bacteria” (2004):
≈ marks a conversion by molar mass, not a printed value.

Experiments:
Format in all cases: functional
Staphylococcus aureus [1] = experiment: Minimal bacterial concentration against Staphylococcus aureus was evaluated; Range = 1-1.5 ug/mL
Staphylococcus aureus [2] = experiment: Minimal inhibitory concentration against Staphylococcus aureus was evaluated; Range = 0.5-1.0 ug/mL
Staphylococcus aureus [3] = experiment: Minimal bacterial concentration against Staphylococcus aureus was evaluated
Staphylococcus aureus [4] = experiment: Minimal inhibitory concentration against Staphylococcus aureus was evaluated; Range = 1.5-2 ug/mL
Staphylococcus aureus [5] = experiment: Minimal inhibitory concentration against Staphylococcus aureus was evaluated; Range = 1-1.5 ug/mL
Staphylococcus aureus [6] = experiment: Minimal inhibitory concentration against Staphylococcus aureus was evaluated
Escherichia coli [7] = experiment: Minimal bacterial concentration against Escherichia coli was evaluated; Range = 2-2.5 ug/mL
Staphylococcus aureus [8] = experiment: Minimal bacterial concentration against Staphylococcus aureus was evaluated; Range = 2-2.5 ug/mL
Staphylococcus aureus [9] = experiment: Minimal inhibitory concentration against Staphylococcus aureus was evaluated; Range = 1.5-2.0 ug/mL
Staphylococcus aureus [10] = experiment: Minimal inhibitory concentration against Staphylococcus aureus was evaluated; Range = 0-0.5 ug/mL
Escherichia coli [11] = experiment: Minimal bacterial concentration against Escherichia coli was evaluated; Range = 1.5-2.0 ug/mL
Staphylococcus aureus [12] = experiment: Minimal bacterial concentration against Staphylococcus aureus was evaluated; Range = 1.0-1.5ug/mL

CC(N)C(=O)Nc1ccc(C2c3ccc([nH]3)C(c3ccc(NC(=O)C(C)N)cc3)c3ccc([nH]3)C(c3ccc(O[C@@H]4O[C@@H](CO)[C@@H](O)[C@H](O)[C@@H]4O)cc3)c3ccc([nH]3)C(c3ccc(O[C@@H]4O[C@@H](CO)[C@@H](O)[C@H](O)[C@@H]4O)cc3)c3ccc2[nH]3)cc1 (some centres not stated)
MBC (Staphylococcus aureus [1]): 1.5 µg/mL (≈ 1.31 µM) | MIC (Staphylococcus aureus [2]): 1 µg/mL (≈ 0.87 µM)

CC(N)C(=O)Nc1ccc(C2c3ccc([nH]3)C(c3ccc(NC(=O)C(C)N)cc3)c3ccc([nH]3)C(c3ccccc3O[C@@H]3O[C@@H](CO)[C@@H](O)[C@H](O)[C@@H]3O)c3ccc([nH]3)C(c3ccc(NC(=O)C(C)N)cc3)c3ccc2[nH]3)cc1 (some centres not stated)
MBC (Staphylococcus aureus [3]): > 1.5 µg/mL | MIC (Staphylococcus aureus [4]): 2 µg/mL (≈ 1.89 µM)

Cc1ccc(C2c3ccc([nH]3)C(c3ccc(C)cc3)c3ccc([nH]3)C(c3ccc(OCCCC(=O)N(CCCN)CCCCNCCCN)cc3)c3ccc([nH]3)C(c3ccc(C)cc3)c3ccc2[nH]3)cc1 (configuration not stated)
MBC (Staphylococcus aureus [3]): > 1.5 µg/mL | MIC (Staphylococcus aureus [5]): 1.5 µg/mL (≈ 1.58 µM)

CC(N)C(=O)Nc1ccc(C2c3ccc([nH]3)C(c3ccc(O[C@@H]4O[C@@H](CO)[C@@H](O)[C@H](O)[C@@H]4O)cc3)c3ccc([nH]3)C(c3ccc(NC(=O)C(C)N)cc3)c3ccc([nH]3)C(c3ccc(O[C@@H]4O[C@@H](CO)[C@@H](O)[C@H](O)[C@@H]4O)cc3)c3ccc2[nH]3)cc1 (some centres not stated)
MBC (Staphylococcus aureus [1]): 1.5 µg/mL (≈ 1.31 µM) | MIC (Staphylococcus aureus [2]): 1 µg/mL (≈ 0.87 µM)

Cc1ccc(C2c3ccc([nH]3)C(c3ccc(C)cc3)c3ccc([nH]3)C(c3ccc(OCCCC(=O)NC(CCCN=C(N)N)C(=O)NCC(=O)NC(CC(=O)O)C(=O)O)cc3)c3ccc([nH]3)C(c3ccc(C)cc3)c3ccc2[nH]3)cc1 (configuration not stated)
MBC (Staphylococcus aureus [3]): > 3 µg/mL | MIC (Staphylococcus aureus [6]): > 2.5 µg/mL

C=CC1=C(C)/C2=C/c3[nH]c(c(C)c3C=C)/C=c3\[nH]/c(c(CCC(=O)NCCCCN(CCCN)CCCCN)c3C)=C\C3=NC(CC1=N2)C(C)=C3CCC(=O)NCCCCN(CCCN)CCCCN (configuration not stated)
MBC (Escherichia coli [7]): 2.5 µg/mL (≈ 2.6 µM) | MBC (Staphylococcus aureus [8]): 2.5 µg/mL (≈ 2.6 µM) | MIC (Staphylococcus aureus [4]): 2 µg/mL (≈ 2.08 µM)

Cc1ccc(C2c3ccc([nH]3)C(c3ccc(C)cc3)c3ccc([nH]3)C(c3ccccc3N)c3ccc([nH]3)C(c3ccc(C)cc3)c3ccc2[nH]3)cc1 (configuration not stated)
MBC (Staphylococcus aureus [3]): > 3 µg/mL | MIC (Staphylococcus aureus [6]): > 2.5 µg/mL

CC(N)C(=O)Nc1ccccc1C1c2ccc([nH]2)C(c2ccc(O[C@@H]3O[C@@H](CO)[C@@H](O)[C@H](O)[C@@H]3O)cc2)c2ccc([nH]2)C(c2ccc(O[C@@H]3O[C@@H](CO)[C@@H](O)[C@H](O)[C@@H]3O)cc2)c2ccc([nH]2)C(c2ccc(O[C@@H]3O[C@@H](CO)[C@@H](O)[C@H](O)[C@@H]3O)cc2)c2ccc1[nH]2 (some centres not stated)
MBC (Staphylococcus aureus [3]): > 1.5 µg/mL | MIC (Staphylococcus aureus [9]): 2 µg/mL (≈ 1.61 µM)

Nc1ccc(C2c3ccc([nH]3)C(c3ccc(N)cc3)c3ccc([nH]3)C(c3ccc(O[C@@H]4O[C@@H](CO)[C@@H](O)[C@H](O)[C@@H]4O)cc3)c3ccc([nH]3)C(c3ccc(N)cc3)c3ccc2[nH]3)cc1 (some centres not stated)
MBC (Staphylococcus aureus [3]): > 1.5 µg/mL | MIC (Staphylococcus aureus [5]): 1.5 µg/mL (≈ 1.78 µM)

Cc1ccc(C2c3ccc([nH]3)C(c3ccc(C)cc3)c3ccc([nH]3)C(c3ccc(OCCCC(=O)N(CCCN)CCCCN)cc3)c3ccc([nH]3)C(c3ccc(C)cc3)c3ccc2[nH]3)cc1 (configuration not stated)
MBC (Staphylococcus aureus [1]): 1.5 µg/mL (≈ 1.68 µM) | MIC (Staphylococcus aureus [2]): 1 µg/mL (≈ 1.12 µM)

Nc1ccc(C2c3ccc([nH]3)C(c3ccc(O[C@@H]4O[C@@H](CO)[C@@H](O)[C@H](O)[C@@H]4O)cc3)c3ccc([nH]3)C(c3ccc(N)cc3)c3ccc([nH]3)C(c3ccc(O[C@@H]4O[C@@H](CO)[C@@H](O)[C@H](O)[C@@H]4O)cc3)c3ccc2[nH]3)cc1 (some centres not stated)
MIC (Staphylococcus aureus [10]): 0.5 µg/mL (≈ 0.496 µM) | MBC (Staphylococcus aureus [1]): 1.5 µg/mL (≈ 1.49 µM)

Nc1ccccc1C1c2ccc([nH]2)C(c2ccc(O[C@@H]3O[C@@H](CO)[C@@H](O)[C@H](O)[C@@H]3O)cc2)c2ccc([nH]2)C(c2ccc(O[C@@H]3O[C@@H](CO)[C@@H](O)[C@H](O)[C@@H]3O)cc2)c2ccc([nH]2)C(c2ccc(O[C@@H]3O[C@@H](CO)[C@@H](O)[C@H](O)[C@@H]3O)cc2)c2ccc1[nH]2 (some centres not stated)
MBC (Staphylococcus aureus [3]): > 1.5 µg/mL | MIC (Staphylococcus aureus [2]): 1 µg/mL (≈ 0.855 µM)

Cc1ccc(C2c3ccc([nH]3)C(c3ccc(C)cc3)c3ccc([nH]3)C(c3ccc(N)cc3)c3ccc([nH]3)C(c3ccc(C)cc3)c3ccc2[nH]3)cc1 (configuration not stated)
MBC (Staphylococcus aureus [3]): > 3 µg/mL | MIC (Staphylococcus aureus [6]): > 2.5 µg/mL

CC(N)C(=O)Nc1ccc(C2c3ccc([nH]3)C(c3ccc(O[C@@H]4O[C@@H](CO)[C@@H](O)[C@H](O)[C@@H]4O)cc3)c3ccc([nH]3)C(c3ccc(O[C@@H]4O[C@@H](CO)[C@@H](O)[C@H](O)[C@@H]4O)cc3)c3ccc([nH]3)C(c3ccc(O[C@@H]4O[C@@H](CO)[C@@H](O)[C@H](O)[C@@H]4O)cc3)c3ccc2[nH]3)cc1 (some centres not stated)
MBC (Staphylococcus aureus [3]): > 1.5 µg/mL | MIC (Staphylococcus aureus [5]): 1.5 µg/mL (≈ 1.21 µM)

N=C(N)NCCCC(NC(=O)CCCCOc1ccccc1C1c2ccc([nH]2)C(c2ccc(O[C@@H]3O[C@@H](CO)[C@@H](O)[C@H](O)[C@@H]3O)cc2)c2ccc([nH]2)C(c2ccc(O[C@@H]3O[C@@H](CO)[C@@H](O)[C@H](O)[C@@H]3O)cc2)c2ccc([nH]2)C(c2ccc(O[C@@H]3O[C@@H](CO)[C@@H](O)[C@H](O)[C@@H]3O)cc2)c2ccc1[nH]2)C(=O)NCC(=O)NC(CC(=O)O)C(=O)O (some centres not stated)
MBC (Staphylococcus aureus [1]): 1.5 µg/mL (≈ 0.938 µM) | MIC (Staphylococcus aureus [2]): 1 µg/mL (≈ 0.625 µM)

CC(N)C(=O)Nc1ccc(C2c3ccc([nH]3)C(c3ccc(NC(=O)C(C)N)cc3)c3ccc([nH]3)C(c3ccc(O[C@@H]4O[C@@H](CO)[C@@H](O)[C@H](O)[C@@H]4O)cc3)c3ccc([nH]3)C(c3ccc(NC(=O)C(C)N)cc3)c3ccc2[nH]3)cc1 (some centres not stated)
MBC (Staphylococcus aureus [3]): > 1.5 µg/mL | MIC (Staphylococcus aureus [5]): 1.5 µg/mL (≈ 1.42 µM)

N=C(N)NCCCC(NC(=O)CCCOc1ccc(C2c3ccc([nH]3)C(c3ccc(O[C@@H]4O[C@@H](CO)[C@@H](O)[C@H](O)[C@@H]4O)cc3)c3ccc([nH]3)C(c3ccc(O[C@@H]4O[C@@H](CO)[C@@H](O)[C@H](O)[C@@H]4O)cc3)c3ccc([nH]3)C(c3ccc(O[C@@H]4O[C@@H](CO)[C@@H](O)[C@H](O)[C@@H]4O)cc3)c3ccc2[nH]3)cc1)C(=O)NCC(=O)NC(CC(=O)O)C(=O)O (some centres not stated)
MBC (Staphylococcus aureus [1]): 1.5 µg/mL (≈ 0.946 µM) | MIC (Staphylococcus aureus [2]): 1 µg/mL (≈ 0.631 µM)

Cc1ccc(C2c3ccc([nH]3)C(c3ccc(C)cc3)c3ccc([nH]3)C(c3ccccc3NC(=O)C(N)CO)c3ccc([nH]3)C(c3ccc(C)cc3)c3ccc2[nH]3)cc1 (configuration not stated)
MIC (Staphylococcus aureus [6]): > 3 µg/mL

Cc1ccc(C2c3ccc([nH]3)C(c3ccc(C)cc3)c3ccc([nH]3)C(c3ccc(NC(=O)C(N)CO)cc3)c3ccc([nH]3)C(c3ccc(C)cc3)c3ccc2[nH]3)cc1 (configuration not stated)
MIC (Staphylococcus aureus [6]): > 3 µg/mL

Nc1ccc(C2c3ccc([nH]3)C(c3ccc(N)cc3)c3ccc([nH]3)C(c3ccc(O[C@@H]4O[C@@H](CO)[C@@H](O)[C@H](O)[C@@H]4O)cc3)c3ccc([nH]3)C(c3ccc(O[C@@H]4O[C@@H](CO)[C@@H](O)[C@H](O)[C@@H]4O)cc3)c3ccc2[nH]3)cc1 (some centres not stated)
MIC (Staphylococcus aureus [6]): > 3 µg/mL

Nc1ccc(C2c3ccc([nH]3)C(c3ccc(N)cc3)c3ccc([nH]3)C(c3ccccc3O[C@@H]3O[C@@H](CO)[C@@H](O)[C@H](O)[C@@H]3O)c3ccc([nH]3)C(c3ccc(N)cc3)c3ccc2[nH]3)cc1 (some centres not stated)
MBC (Staphylococcus aureus [3]): > 1.5 µg/mL | MIC (Staphylococcus aureus [9]): 2 µg/mL (≈ 2.37 µM)

Cc1ccc(C2c3ccc([nH]3)C(c3ccc(C)cc3)c3ccc([nH]3)C(c3ccccc3OCCCC(=O)NC(CCCN=C(N)N)C(=O)NCC(=O)NC(CC(=O)O)C(=O)O)c3ccc([nH]3)C(c3ccc(C)cc3)c3ccc2[nH]3)cc1 (configuration not stated)
MBC (Staphylococcus aureus [3]): > 3 µg/mL | MIC (Staphylococcus aureus [6]): > 2.5 µg/mL

C=CC1=C(C)/C2=C/c3[nH]c(c(C)c3C=C)/C=c3\[nH]/c(c(CCC(=O)NCCCCN(CCCN)CCCCNCCCN)c3C)=C\C3=NC(CC1=N2)C(C)=C3CCC(=O)NCCCCN(CCCN)CCCCNCCCN (configuration not stated)
MBC (Escherichia coli [11]): 2 µg/mL (≈ 1.86 µM) | MIC (Staphylococcus aureus [2]): 1 µg/mL (≈ 0.93 µM) | MBC (Staphylococcus aureus [12]): 1.5 µg/mL (≈ 1.39 µM)

Nc1ccc(C2c3ccc([nH]3)C(c3ccc(O[C@@H]4O[C@@H](CO)[C@@H](O)[C@H](O)[C@@H]4O)cc3)c3ccc([nH]3)C(c3ccc(O[C@@H]4O[C@@H](CO)[C@@H](O)[C@H](O)[C@@H]4O)cc3)c3ccc([nH]3)C(c3ccc(O[C@@H]4O[C@@H](CO)[C@@H](O)[C@H](O)[C@@H]4O)cc3)c3ccc2[nH]3)cc1 (some centres not stated)
MBC (Staphylococcus aureus [1]): 1.5 µg/mL (≈ 1.28 µM) | MIC (Staphylococcus aureus [5]): 1.5 µg/mL (≈ 1.28 µM)
